Results reported in PMC6858373 (Scientific Reports, 2019).
pIC50: −log10 of the molar value. Where two headings read alike, the source gives them in different places.

Tests used:
[1] = biological target: T1, FGF14:Nav1.6 C-tail complex (Homo sapiens, UniProt Q92915+Q9UQD0); experiment: Split-luciferase complementation assay (LCA) in Clone V double stable HEK293 cells; format: cell-based; details: for Split Luciferase Assay Z-score Set 1 / Split Luciferase Assay % Lum Set 1 / Split Luciferase Assay Z-score Set 2 / Split Luciferase Assay %Lum Set 2: CC_NCI screening; for Split Luciferase Assay Z-score Set 1 / Split Luciferase Assay % Lum Set 1: biological replicate Set 1; for Split Luciferase Assay Z-score Set 1 / Split Luciferase Assay Z-score Set 2: normalized to on-plate 0.3% DMSO controls; for Split Luciferase Assay % Lum Set 1 / Split Luciferase Assay %Lum Set 2: normalized to on-plate 0.3% DMSO controls (n=16 per plate); for Split Luciferase Assay Z-score Set 2 / Split Luciferase Assay %Lum Set 2: biological replicate Set 2; for Split Luciferase Assay %Lum Avg: average of Set 1 and Set 2, normalized to 0.3% DMSO controls
T1 construct: polymerase chain reaction (PCR) amplification of the FGF14 open reading frame (nt 1–855); C-terminal fragment of Nav1.6 (amino acids 1763–1976) fused with CD4ΔC-tail (amino acids 1–395); expressed in transfected cells

[2] = biological target: full-length P. pyralis luciferase (Photinus pyralis, UniProt P08659, K549A/L550V/N119G/N50D/S548I); format: cell-based; details: CC_NCI screening; normalized to on-plate 0.3% DMSO controls
Clone V cells = experiment: CellTiter Blue (CTB) cell viability counter-screen; details: CC_NCI screening; normalized to on-plate 0.3% DMSO controls
in vitro = details: human, Clone V cells

T1 sequence (Q92915 1-252 isoform Q92915-2): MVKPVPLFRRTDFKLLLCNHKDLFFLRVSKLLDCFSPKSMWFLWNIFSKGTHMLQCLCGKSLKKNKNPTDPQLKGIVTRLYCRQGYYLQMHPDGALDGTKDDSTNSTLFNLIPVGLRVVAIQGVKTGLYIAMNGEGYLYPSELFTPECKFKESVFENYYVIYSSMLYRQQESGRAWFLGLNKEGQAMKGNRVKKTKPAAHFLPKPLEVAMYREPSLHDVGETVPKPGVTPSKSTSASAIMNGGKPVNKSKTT
T1 sequence (Q9UQD0 1763-1976 limits assumed): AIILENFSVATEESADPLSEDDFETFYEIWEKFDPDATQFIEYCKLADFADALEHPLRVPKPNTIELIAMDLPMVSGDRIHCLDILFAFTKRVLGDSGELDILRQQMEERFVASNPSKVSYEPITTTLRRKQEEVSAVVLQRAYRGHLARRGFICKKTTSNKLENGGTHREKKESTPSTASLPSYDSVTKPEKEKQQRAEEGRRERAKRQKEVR
Sequence of full-length P. pyralis luciferase (P08659 whole entry N50D/N119G/S548I/K549A/L550V, looked up): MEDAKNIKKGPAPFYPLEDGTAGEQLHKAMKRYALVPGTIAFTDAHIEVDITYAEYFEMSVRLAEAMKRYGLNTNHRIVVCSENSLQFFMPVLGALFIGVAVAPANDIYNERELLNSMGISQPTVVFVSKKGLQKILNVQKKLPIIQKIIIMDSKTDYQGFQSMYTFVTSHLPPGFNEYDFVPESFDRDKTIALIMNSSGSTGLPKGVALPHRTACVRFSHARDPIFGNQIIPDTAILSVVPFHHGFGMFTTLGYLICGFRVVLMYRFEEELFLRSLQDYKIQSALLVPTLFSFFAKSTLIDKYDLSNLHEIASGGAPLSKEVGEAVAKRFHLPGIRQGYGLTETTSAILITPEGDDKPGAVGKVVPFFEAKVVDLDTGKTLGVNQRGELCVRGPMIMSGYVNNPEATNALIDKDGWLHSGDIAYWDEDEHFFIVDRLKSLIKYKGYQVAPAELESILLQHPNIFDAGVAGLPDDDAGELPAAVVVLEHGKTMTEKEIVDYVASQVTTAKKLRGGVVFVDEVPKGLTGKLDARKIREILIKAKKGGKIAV

Compound | Z-score (LCA primary screening) ([1]; 30 µM, 384-well, average of primary screening (n = 2), vs on-plate 0.3% DMSO) | dose-response behavior of repurchased compounds ([1]; 10-point dose response 0.25-50 µM, Clone V cells) | Split Luciferase Assay Z-score Set 1 [1] | Split Luciferase Assay % Lum Set 1 [1] [%] | Split Luciferase Assay Z-score Set 2 [1] | Split Luciferase Assay %Lum Set 2 [1] [%] | IMin (% Luminescence) ([1]; antagonists, Clone V cells, 384-well, normalized to DMSO) | Split Luciferase Assay %Lum Avg [1] [%] | action toward the FGF14:Nav1.6 C-tail interaction ([1]; dose-dependency validation using fresh compound samples) | pIC50 ([1]; estimated, 8-point dose response 0.25-30 µM, n = 4 per concentration, library compounds, read-out: IC50) | pIC50 ([1]; repurchased compounds, 10-point dose response 0.25-50 µM, n = 8 per concentration, Clone V cells, 384-well, read-out: in-cell IC50) | Luciferase Assay % Lum (full-length luciferase counter-screen) [2] [%] | Luciferase Assay Z-score (full-length luciferase counter-screen) [2] | Toxicity Assay Z-score (CTB cell viability) (Clone V cells) | viability at 16 h, 30 µM (in vitro) [%]
C[C@@H](Oc1cc(-c2cnn(C3CCNCC3)c2)cnc1N)c1c(Cl)ccc(F)c1Cl [Crizotinib, reference compound] | −5.29 | purely inhibitory effects | -5.24 | 35.11 | -5.34 | 34.33 | 34.72 | 34.72 | acted as antagonists | 4.91 | 4.81 | 91.93 | -1.03 | 0.27 | 102
Oc1c2ccccc2c2c3c(cccc13)N=N2 [SP600125] | – | – | 0.99 | 112.30 | -1.20 | 85.31 | – | 98.80 | – | – | – | 110.92 | 1.40 | 1.21 | 109
CS(=O)(=O)c1ccc(C2=C(c3ccccc3)C(=O)OC2)cc1 [ROFECOXIB] | – | – | 1.78 | 122.08 | – | – | – | 87.57 | – | – | – | 102.66 | 0.34 | 1.28 | 109
CC(=O)O[C@@]12CO[C@@H]1C[C@H](O)[C@@]1(C)C(=O)[C@H](O)C3=C(C)[C@@H](OC(=O)[C@H](O)[C@@H](NC(=O)OC(C)(C)C)c4ccccc4)C[C@@](O)([C@@H](OC(=O)c4ccccc4)[C@H]21)C3(C)C [Docetaxel] | – | – | 6.00 | 174.26 | 4.48 | 155.01 | – | 164.63 | – | – | – | 101.54 | 0.20 | 0.98 | 107
Cc1cc(Nc2cc(N3CCN(C)CC3)nc(Sc3ccc(NC(=O)C4CC4)cc3)n2)[nH]n1 [TOZASERTIB] | – | – | -1.55 | 80.77 | -6.02 | 26.01 | – | 53.39 | – | – | – | 73.72 | -3.37 | 0.86 | 106
Nc1ccccc1NC(=O)c1ccc(CNc2nccc(-c3cccnc3)n2)cc1 [MGCD0103] | – | – | -1.82 | 77.51 | -1.96 | 75.94 | – | 76.73 | – | – | – | 90.12 | -1.27 | 0.52 | 104
CO[C@H]1C[C@@H]2CC[C@@H](C)[C@@](O)(O2)C(=O)C(=O)N2CCCC[C@H]2C(=O)O[C@H]([C@H](C)C[C@@H]2CC[C@@H](O)[C@H](OC)C2)CC(=O)[C@H](C)/C=C(\C)[C@@H](O)[C@@H](OC)C(=O)[C@H](C)C[C@H](C)/C=C/C=C/C=C/1C [Sirolimus] | – | – | 1.26 | 115.56 | 0.41 | 105.07 | – | 110.32 | – | – | – | 80.58 | -2.49 | 0.38 | 103
CCCCCCCCc1ccc(CCC(N)(CO)CO)cc1 [Fingolimod] | – | – | -0.06 | 99.25 | 0.58 | 107.15 | – | 103.20 | – | – | – | 94.97 | -0.64 | 1.42 | 110
